From US20170253601A1, “Substituted Pyrrolidine Compounds” (EPIZYME, INC., priority 2014, published 2017)
Where two headings read alike, the source gives them in different places.

Molecular target: T1, SMYD2 (Homo sapiens, UniProt Q9NRG4)
T1 construct: Full length SMYD2 (NP 064582.2) was cloned; His6 (N, cleaved yes); FLAG (N); made in house; host or cells: Sf9 insect cells
Assay: SMYD2 Biochemical Assay (3H-SAM, biotinylated peptide substrate, Flashplate)
Excerpt: S-adenosylmethionine (SAM), S-adenosylhomocysteine (SAH), bicine, Tween20, dimethylsulfoxide (DMSO), bovine skin gelatin (BSG), and Tris(2-carboxyethyl)phosphine hydrochloride (TCEP) were purchased from Sigma-Aldrich at the highest level of purity possible. ^3H-SAM was purchase from American Radiolabeled Chemicals with a specific activity of 80 Ci/mmol. 384-well streptavidin Flashplates were purchased from PerkinElmer.
Peptide was synthesized with a N-terminal linker-affinity tag motif and a C-terminal amide cap by 21st Century Biochemicals. The peptide was high-performance liquid chromatography (HPLC) purified to greater than 95% purity and confirmed by liquid chromatography mass spectrometry (LC-MS). The sequence was […](K-Biot)-amide. (SEQ ID No: 3)
Full length SMYD2 (NP 064582.2) was cloned into a pFastbac-Htb-lic vector with an N-terminal His6 tag and FLAG tag, preceded by a TEV protease cleavage site. The protein was expressed in Sf9 insect cells. Cells were resuspended in lysis buffer (25 mM HEPES-NaOH, pH 7.5, 200 mM NaCl, 5% glycerol, and 5 mM β-ME) and lysed by sonication. The protein was purified by Ni-NTA (Qiagen), followed by TEV cleavage to remove the His6 tag, subtractive Ni-NTA (Qiagen), and gel filtration chromatography using an […] (GE Healthcare). Purified protein was stored in 20 mM Tris-HCl, pH 8.0, 100 mM NaCl, and 1 mM TCEP.
The assays were all performed in a buffer consisting of 20 mM Bicine (pH=7.6), 1 mM TCEP, 0.005% Bovine Skin Gelatin, and 0.002% Tween20, prepared on the day of use. Compounds in 100% DMSO (1 ul) were spotted into a polypropylene 384-well V-bottom plates (Greiner) using a Platemate Plus outfitted with a 384-channel head (Thermo Scientific). DMSO (1 ul) was added to Columns 11, 12, 23, 24, rows A-H for the maximum signal control and 1 ul of SAH, a known product and inhibitor of SMYD2, was added to columns 11, 12, 23, 24, rows I-P for the minimum signal control. A cocktail (40 ul) containing the SMYD2 enzyme was added by Multidrop Combi (Thermo-Fisher). The compounds were allowed to incubate with SMYD2 for 30 min at room temperature, then a cocktail (10 ul) containing ^3H-SAM and peptide was added to initiate the reaction (final volume=51 ul). The final concentrations of the components were as follows: SMYD2 was 1.5 nM, ^3H-SAM was 10 nM, and peptide was 60 nM, SAH in the minimum signal control wells was 1000 uM, and the DMSO concentration was 2%. The assays were stopped by the addition of non-radioactive SAM (10 ul) to a final concentration of 600 uM, which dilutes the ^3H-SAM to a level where its incorporation into the peptide substrate is no longer detectable. 50 ul of the reaction in the 384-well polypropylene plate was then transferred to a 384-well Flashplate and the biotinylated peptides were allowed to bind to the streptavidin surface for at least 1 hour before being washed three times with 0.1% Tween20 in a Biotek ELx405 plate washer. The plates were then read in a PerkinElmer TopCount plate reader to measure the quantity of ^3H-labeled peptide bound to the Flashplate surface, measured as disintegrations per minute (dpm) or alternatively, referred to as counts per minute (cpm).
Where dpm=disintegrations per minute, cmpd=signal in assay well, and min and max are the respective minimum and maximum signal controls.
Where top and bottom are the normally allowed to float, but may be fixed at 100 or 0 respectively in a 3-parameter fit. The Hill Coefficient normally allowed to float but may also be fixed at 1 in a 3-parameter fit. I is the compound concentration.
SMYD2 biochemical assay data for representative Compounds of the Disclosure are presented in Tables 1-3 in the column titled “SMYD2 Biochem IC50 (μM).”

[1] = Table 2, average of n = 1 to n = 50, read-out: SMYD2 Biochem IC50
[2] = IC50 values are an average of n = 1 to n = 50, read-out: SMYD2 Biochem IC50 (μM)*

T1 sequence (Q9NRG4 whole entry): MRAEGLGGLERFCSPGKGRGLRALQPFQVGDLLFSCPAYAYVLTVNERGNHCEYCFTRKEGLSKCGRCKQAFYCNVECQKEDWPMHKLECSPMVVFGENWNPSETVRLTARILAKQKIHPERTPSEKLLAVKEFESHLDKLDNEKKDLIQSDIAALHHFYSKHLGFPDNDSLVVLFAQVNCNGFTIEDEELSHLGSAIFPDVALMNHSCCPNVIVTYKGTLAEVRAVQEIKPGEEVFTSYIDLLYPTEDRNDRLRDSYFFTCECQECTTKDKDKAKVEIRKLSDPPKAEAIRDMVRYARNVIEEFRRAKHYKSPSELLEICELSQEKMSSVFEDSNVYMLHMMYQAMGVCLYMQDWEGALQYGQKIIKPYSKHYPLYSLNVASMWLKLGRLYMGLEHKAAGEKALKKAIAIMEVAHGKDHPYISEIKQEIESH

SMILES | IC50 [2] | further results
C[C@H]1CN(Cc2ccncc2)C[C@H]1NC(=O)c1cc(C2CC2)on1 (racemic) [compound 108, (±)-cis-5-cyclopropyl-N-(4-methyl-1-(pyridin-4-ylmethyl)pyrrolidin-3-yl)isoxazole-3-carboxamide] | – | IC50 [1]: 22.6 µM
C[C@H]1CN(Cc2ccccn2)C[C@H]1NC(=O)c1cc(C2CC2)on1 (racemic) [compound 109, (±)-cis-5-cyclopropyl-N-(4-methyl-1-(pyridin-2-ylmethyl)pyrrolidin-3-yl)isoxazole-3-carboxamide] | – | IC50 [1]: 31.8 µM
CCN1C[C@H](C)[C@H](NC(=O)c2cc(C3CC3)on2)C1 (racemic) [compound 110, (±)-cis-5-cyclopropyl-N-(1-ethyl-4-methylpyrrolidin-3-yl)isoxazole-3-carboxamide] | – | IC50 [1]: 3 µM
CC(=O)N1C[C@H](C)[C@H](NC(=O)c2cc(C3CC3)on2)C1 (racemic) [compound 111, (±)-cis-N-(1-acetyl-4-methylpyrrolidin-3-yl)-5-cyclopropylisoxazole-3-carboxamide] | – | IC50 [1]: > 50 µM
CCc1cc(C(=O)N[C@@H]2CN(C3CC3)C[C@@H]2C)no1 (racemic) [compound 112, (±)-cis-N-(1-cyclopropyl-4-methylpyrrolidin-3-yl)-5-ethyl-isoxazole-3-carboxamide] | – | IC50 (Table 1, average of n = 1 to n = 50, read-out: SMYD2 Biochem IC50): 9.4 µM
C[C@H]1CN(Cc2ccccc2)C[C@H]1NC(=O)c1cc(C2CC2)on1 (racemic) [compound 116, (±)-cis-N-([1-benzyl-4-methylpyrrolidin-3-yl)-5-cyclopropyl-1,2-oxazole-3-carboxamide] | 4.2 µM | –
C[C@@H]1CN(Cc2ccccc2)C[C@H]1NC(=O)c1cc(C2CC2)on1 (racemic) [compound 117, (±)-trans-N-(1-benzyl-4-methylpyrrolidin-3-yl)-5-cyclopropyl-1,2-oxazole-3-carboxamide] | > 50 µM | –
C[C@H]1CN(Cc2cccnc2)C[C@H]1NC(=O)c1cc(C2CC2)on1 (racemic) [compound 120, (±)-cis-5-cyclopropyl-N-[4-methyl-1-(pyridin-3-ylmethyl)pyrrolidin-3-yl]-1,2-oxazole-3-carboxamide] | 10.6 µM | –
C[C@H]1CN(Cc2ccccn2)C[C@H]1NC(=O)c1cc(C2CC2)on1 (racemic) [compound 121, (±)-cis-5-cyclopropyl-N-[4-methyl-1-(pyridin-2-ylmethyl)pyrrolidin-3-yl]-1,2-oxazole-3-carboxamide] | 15.7 µM | –
CO[C@H]1CN(C)C[C@@H]1NC(=O)c1cc(C2CC2)on1 (racemic) [compound 122, (±)-trans-5-cyclopropyl-N-(4-methoxy-1-methylpyrrolidin-3-yl)-1,2-oxazole-3-carboxamide] | > 50 µM | –
CO[C@H]1CN(C)C[C@H]1NC(=O)c1cc(C2CC2)on1 (racemic) [compound 123, (±)-cis-5-cyclopropyl-N-(4-methoxy-1-methylpyrrolidin-3-yl)-1,2-oxazole-3-carboxamide] | 49.8 µM | –
C[C@@H]1CN(Cc2cccnc2)C[C@H]1NC(=O)c1cc(C2CC2)on1 (racemic) [compound 124, (±)-trans-5-cyclopropyl-N-[4-methyl-1-(pyridin-3-ylmethyl)pyrrolidin-3-yl]-1,2-oxazole-3-carboxamide] | > 50 µM | –
C[C@@H]1CN(Cc2ccccn2)C[C@H]1NC(=O)c1cc(C2CC2)on1 (racemic) [compound 125, (±)-trans-5-cyclopropyl-N-[4-methyl-1-(pyridin-2-ylmethyl)pyrrolidin-3-yl]-1,2-oxazole-3-carboxamide] | > 50 µM | –
C[C@@H]1CN(CC2CC2)C[C@H]1NC(=O)c1cc(C2CC2)on1 (racemic) [compound 126, (±)-trans-5-cyclopropyl-N-[1-(cyclopropyl-methyl)-4-methyl-pyrrolidin-3-yl]-1,2-oxazole-3-carboxamide] | > 50 µM | –

Further lines, with some results ahead:

IC50 [2] | SMILES | further results
> 50 µM | C[C@@H]1CN(CC2CCCOC2)C[C@H]1NC(=O)c1cc(C2CC2)on1 (mixture of isomers) [compound 127, (±)-trans-5-cyclopropyl-N-[4-methyl-1-(oxan-3-ylmethyl)pyrrolidin-3-yl]-1,2-oxazole-3-carboxamide] | –
> 50 µM | C[C@@H]1CN(CC(C)(C)C)C[C@H]1NC(=O)c1cc(C2CC2)on1 (racemic) [compound 130, (±)-trans-5-cyclopropyl-N-[(3S,4R)-1-(2,2-dimethylpropyl)-4-methylpyrrolidin-3-yl]-1,2-oxazole-3-carboxamide] | –
> 50 µM | CCc1nc(C)c(CN2C[C@@H](C)[C@H](NC(=O)c3cc(C4CC4)on3)C2)[nH]1 (racemic) [compound 131, (±)-trans-5-cyclopropyl-N-[1-[(2-ethyl-4-methyl-1H-imidazol-5-yl)methyl]-4-methyl-pyrrolidin-3-yl]-1,2-oxazole-3-carboxamide] | –
> 50 µM | C[C@@H]1CN(CCC2CCN(C(=O)OC(C)(C)C)CC2)C[C@H]1NC(=O)c1cc(C2CC2)on1 (racemic) [compound 132] | –
> 50 µM | C[C@@H]1CN(CCC2CCNCC2)C[C@H]1NC(=O)c1cc(C2CC2)on1 (racemic) [compound 133, (±)-trans-5-cyclopropyl-N-[4-methyl-1-[2-(piperidin-4-yl)ethyl]pyrrolidin-3-yl]-1,2-oxazole-3-carboxamide] | –
> 50 µM | COc1ccc(CN2C[C@@H](C)[C@H](NC(=O)c3cc(C4CC4)on3)C2)c(OC)c1 (racemic) [compound 134, (±)-trans--cyclopropyl-N-[1-[(2,4-dimethoxy-phenyl)methyl]-4-methylpyrrolidin-3-yl]-1,2-oxazole-3-carboxamide] | –
> 50 µM | C[C@@H]1CN(Cc2cccc3c2OCO3)C[C@H]1NC(=O)c1cc(C2CC2)on1 (racemic) [compound 135, (±)-trans-N-[1-(2H-1,3-benzodioxol-4-ylmethyl)-4-methyl-pyrrolidin-3-yl]-5-cyclopropyl-1,2-oxazole-3-carboxamide] | –
> 50 µM | C[C@@H]1CN(Cc2ccc(Cl)cc2Cl)C[C@H]1NC(=O)c1cc(C2CC2)on1 (racemic) [compound 136, (±)-trans-5-cyclopropyl-N-[1-[(2,4-dichloro-phenyl)methyl]-4-methylpyrrolidin-3-yl]-1,2-oxazole-3-carboxamide] | –
> 50 µM | C[C@@H]1CN(CC2CCOC2)C[C@H]1NC(=O)c1cc(C2CC2)on1 (mixture of isomers) [compound 137, (±)-trans-5-cyclopropyl-N-[4-methyl-1-(oxolan-3-ylmethyl)pyrrolidin-3-yl]-1,2-oxazole-3-carboxamide] | –
48.1 µM | CC(C)N1C[C@H](NC(=O)c2cc(C3CC3)on2)[C@@H](C2CC2)C1 (racemic) [compound 138, (±)-trans-5-cyclopropyl-N-[4-cyclopropyl-1-(propan-2-yl)pyrrolidin-3-yl]-1,2-oxazole-3-carboxamide] | –
> 50 µM | C[C@@H]1CN(Cc2ncc[nH]2)C[C@H]1NC(=O)c1cc(C2CC2)on1 (racemic) [compound 139, (±)-trans-5-cyclopropyl-N-[1-(1H-imidazol-2-ylmethyl)-4-methylpyrrolidin-3-yl]-1,2-oxazole-3-carboxamide] | –
> 50 µM | C[C@@H]1CN(Cc2ccc(Cl)cc2)C[C@H]1NC(=O)c1cc(C2CC2)on1 (racemic) [compound 140, (±)-trans-N-{1-[(4-chlorophenyl)methyl]-4-methylpyrrolidin-3-yl]-5-cyclopropyl-1,2-oxazole-3-carboxamide] | –
